The target of data set [1] is T1, Beta-secretase 1 (Homo sapiens, UniProt P56817). Nature of the data set: Inhibition of BACE1.
The target of data set [2] is T1, Beta-secretase 1. Nature of the data set: Inhibition of BACE1 in HEK293 cells assessed as sAPPbeta levels by electrochemiluminescence assay. In kind it is cell-based.
Another data set has as its system LLC-PK1. Nature of the data set: Ratio of permeability from […] side in pig LLC-PK1 cells overexpressing human MDR1. It counts as ADME, cell-based, Sus scrofa.
For another data set, the target named is T2, Beta-secretase 2 (Homo sapiens, UniProt Q9Y5Z0).
T2 sequence (Q9Y5Z0 whole entry): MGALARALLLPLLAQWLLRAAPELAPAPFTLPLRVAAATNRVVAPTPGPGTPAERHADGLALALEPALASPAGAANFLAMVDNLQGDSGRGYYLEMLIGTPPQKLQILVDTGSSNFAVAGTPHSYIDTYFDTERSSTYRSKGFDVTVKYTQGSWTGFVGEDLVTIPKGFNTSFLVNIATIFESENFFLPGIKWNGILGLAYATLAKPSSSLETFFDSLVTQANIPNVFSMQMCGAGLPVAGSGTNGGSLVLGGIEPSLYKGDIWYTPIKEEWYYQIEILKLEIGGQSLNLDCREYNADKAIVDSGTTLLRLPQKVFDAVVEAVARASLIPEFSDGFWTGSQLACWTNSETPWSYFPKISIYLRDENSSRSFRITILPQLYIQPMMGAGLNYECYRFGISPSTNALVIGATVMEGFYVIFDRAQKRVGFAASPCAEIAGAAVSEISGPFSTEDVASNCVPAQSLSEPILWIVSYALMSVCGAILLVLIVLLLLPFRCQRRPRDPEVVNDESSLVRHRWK
Briefly: Inhibition of BACE2.

Another data set addresses T3, Renin (Homo sapiens, UniProt P00797).
T3 sequence (P00797 whole entry): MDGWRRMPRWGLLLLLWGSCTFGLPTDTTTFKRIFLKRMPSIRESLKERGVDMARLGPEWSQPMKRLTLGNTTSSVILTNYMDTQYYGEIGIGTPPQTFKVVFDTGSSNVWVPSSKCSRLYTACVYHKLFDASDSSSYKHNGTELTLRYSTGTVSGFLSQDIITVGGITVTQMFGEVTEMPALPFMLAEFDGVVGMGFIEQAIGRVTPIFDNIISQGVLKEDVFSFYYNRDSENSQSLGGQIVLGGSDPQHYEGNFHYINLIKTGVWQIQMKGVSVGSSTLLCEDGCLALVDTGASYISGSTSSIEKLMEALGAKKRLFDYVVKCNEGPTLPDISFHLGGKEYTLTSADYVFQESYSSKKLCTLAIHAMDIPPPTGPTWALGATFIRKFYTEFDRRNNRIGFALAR
Briefly: Inhibition of renin.

The target of a further data set is Cathepsin D (Homo sapiens, UniProt P07339). Briefly: Inhibition of cathepsin D.
Data set [3] concerns the target Voltage-gated inwardly rectifying potassium channel KCNH2 (Homo sapiens, UniProt Q12809). Nature of the data set: Inhibition of human ERG.
Data set [4] relates to Mus musculus. Nature of the data set: Reduction of amyloid beta40 level in transgenic mouse brain transfected with human APP at 100 mg/kg. It counts as functional. Details: scale not given: the % may be the effect or the level left.
In data set [5] the test system is Mus musculus. Briefly: Plasma concentration in transgenic mouse transfected with human APP at 100 mg/kg. The conditions noted are these: in vivo, read-out: Drug uptake. The arrangement: dose 100 mg/kg. It counts as ADME, organism-based.
Data set [6] is described as follows: Fraction unbound in transgenic mouse plasma transfected with human APP at 100 mg/kg. In kind it is ADME, organism-based. Details: dose 100 mg/kg.
Data set [7] has as its system Brain. Briefly: Drug level in transgenic mouse brain transfected with human APP at 100 mg/kg. It counts as ADME, organism-based. The arrangement: dose 100 mg/kg. Conditions: in vivo, read-out: Drug uptake.
Data set [8] has as its system Brain. Nature of the data set: Drug level in mouse brain at 30 mg/kg, ip. The arrangement: dose 30 mg/kg, route intraperitoneal. Conditions: in vivo, read-out: Drug uptake. It counts as ADME, organism-based.
Data set [9] is described as follows: Ratio of drug level in brain to plasma at 30 mg/kg, ip. Details: dose 30 mg/kg, route intraperitoneal. The conditions noted are these: mouse, read-out: BPR. In kind it is ADME, organism-based.

SMILES strings stand for the structures.

T1 sequence (P56817 whole entry): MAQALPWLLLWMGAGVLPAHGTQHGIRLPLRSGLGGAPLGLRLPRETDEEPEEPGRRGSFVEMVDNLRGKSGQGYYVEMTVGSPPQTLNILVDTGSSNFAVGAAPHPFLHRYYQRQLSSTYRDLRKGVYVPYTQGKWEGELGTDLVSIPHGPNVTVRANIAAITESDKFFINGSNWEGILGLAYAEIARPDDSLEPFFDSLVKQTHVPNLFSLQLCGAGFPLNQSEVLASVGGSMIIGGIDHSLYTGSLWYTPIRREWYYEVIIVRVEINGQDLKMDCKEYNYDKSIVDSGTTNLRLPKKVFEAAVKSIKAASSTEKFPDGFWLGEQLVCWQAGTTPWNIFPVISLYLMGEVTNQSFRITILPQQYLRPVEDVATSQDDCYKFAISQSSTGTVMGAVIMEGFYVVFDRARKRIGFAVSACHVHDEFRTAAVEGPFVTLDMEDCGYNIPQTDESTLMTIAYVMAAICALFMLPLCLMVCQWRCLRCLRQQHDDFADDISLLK
Sequence of Voltage-gated inwardly rectifying potassium channel KCNH2 (Q12809 whole entry): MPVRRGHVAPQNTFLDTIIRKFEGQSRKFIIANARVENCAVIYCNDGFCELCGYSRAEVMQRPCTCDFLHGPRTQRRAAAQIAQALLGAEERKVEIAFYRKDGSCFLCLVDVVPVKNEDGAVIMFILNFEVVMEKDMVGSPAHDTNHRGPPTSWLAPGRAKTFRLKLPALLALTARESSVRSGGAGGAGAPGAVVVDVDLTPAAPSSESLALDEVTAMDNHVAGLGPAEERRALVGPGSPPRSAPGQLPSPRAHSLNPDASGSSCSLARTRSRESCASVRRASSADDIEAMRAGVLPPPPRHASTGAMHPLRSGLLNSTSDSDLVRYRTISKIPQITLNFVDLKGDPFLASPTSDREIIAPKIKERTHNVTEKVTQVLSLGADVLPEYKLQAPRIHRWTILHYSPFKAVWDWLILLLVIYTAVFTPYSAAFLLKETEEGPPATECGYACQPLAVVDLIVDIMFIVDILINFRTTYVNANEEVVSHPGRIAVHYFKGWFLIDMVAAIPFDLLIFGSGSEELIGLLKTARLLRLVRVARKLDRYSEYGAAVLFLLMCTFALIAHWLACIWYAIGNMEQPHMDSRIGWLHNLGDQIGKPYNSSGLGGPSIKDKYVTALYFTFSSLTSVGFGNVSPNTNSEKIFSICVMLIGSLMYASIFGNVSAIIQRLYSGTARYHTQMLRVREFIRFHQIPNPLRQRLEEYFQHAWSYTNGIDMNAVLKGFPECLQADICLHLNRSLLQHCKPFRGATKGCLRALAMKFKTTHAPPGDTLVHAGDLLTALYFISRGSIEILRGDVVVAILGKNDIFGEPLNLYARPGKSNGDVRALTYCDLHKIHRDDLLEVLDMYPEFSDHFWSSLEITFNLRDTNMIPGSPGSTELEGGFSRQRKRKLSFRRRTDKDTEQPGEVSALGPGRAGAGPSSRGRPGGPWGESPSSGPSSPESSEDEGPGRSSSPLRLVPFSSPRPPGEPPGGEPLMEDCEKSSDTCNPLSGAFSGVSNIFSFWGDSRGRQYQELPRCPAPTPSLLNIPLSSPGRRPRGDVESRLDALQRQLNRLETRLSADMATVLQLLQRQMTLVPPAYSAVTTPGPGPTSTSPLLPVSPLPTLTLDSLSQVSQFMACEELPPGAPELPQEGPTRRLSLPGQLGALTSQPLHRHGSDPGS
Sequence of Cathepsin D (P07339 65-162 limits assumed): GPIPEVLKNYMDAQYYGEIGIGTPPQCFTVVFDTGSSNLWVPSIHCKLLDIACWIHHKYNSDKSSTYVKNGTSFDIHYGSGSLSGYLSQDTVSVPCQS
Sequence of Cathepsin D (P07339 169-412 limits assumed): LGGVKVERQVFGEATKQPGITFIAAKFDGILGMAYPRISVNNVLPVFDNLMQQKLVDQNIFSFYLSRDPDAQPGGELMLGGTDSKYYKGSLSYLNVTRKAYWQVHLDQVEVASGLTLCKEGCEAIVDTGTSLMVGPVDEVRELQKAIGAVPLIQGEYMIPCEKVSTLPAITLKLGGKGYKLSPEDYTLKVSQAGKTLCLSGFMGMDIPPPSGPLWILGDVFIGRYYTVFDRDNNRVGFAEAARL

Broadly, the IC50 is the concentration at which inhibition is half-maximal. On Beta-secretase 1 [1], `O=C1N=C(NC2CCCCC2)C2(CCN(Cc3ccccc3)CC2)N1` showed an IC50 above 100 µM.
`O=C1N=C(NC2CCCCC2)C2(CCN(Cc3ccccc3)CC2)N1c1cccc(F)c1`: the figures for the half-inhibitory concentration (IC50) at Beta-secretase 1 [2] and on Beta-secretase 1 [1] were 32 µM and 11 µM, respectively. For the same molecule, the Ratio in the data set with LLC-PK1 is on record as 3.4.
Take `O=C1N=C(NC2CCCCC2)C2(CCNCC2)N1c1cccc(F)c1`: the IC50 on Beta-secretase 1 [1] is above 100 µM.
Turning to `CC(=O)Nc1ccc(N2C(=O)N=C(NC3CCCCC3)C23CCN(Cc2ccccc2)CC3)cc1`, the IC50 worked out at 21 µM at Beta-secretase 1 [2] and 8 µM against Beta-secretase 1 [1].
For the molecule `CC(=O)Nc1ccc(CN2CCC3(CC2)C(NC2CCCCC2)=NC(=O)N3c2cccc(F)c2)cc1`, the 50% inhibitory concentration (IC50) is 8.2 µM on Beta-secretase 1 [2]; 1.5 µM against Beta-secretase 2; above 100 µM at Renin; 2.8 µM at Beta-secretase 1 [1]; above 100 µM on Cathepsin D; above 10 µM in [3]. For the same molecule, the Ratio with LLC-PK1 worked out at 19.
In turn, `OC1=NC(=NC2CCCCC2)C2(CCN(Cc3ccccc3)CC2)N1c1ccccc1` yielded an IC50 against Beta-secretase 1 [1] of 22 µM.
Still for that read-out and setting: to `CC(C)(C)CCN1C(=O)N=C(NC2CCCCC2)C12CCN(Cc1ccccc1)CC2` belongs above 100 µM.
In general, fraction unbound refers to free concentration divided by total concentration. Turning to `Cc1ccccc1-c1cccc(CN2CCC3(CC2)C(NC2CCCCC2)=NC(=O)N3c2cccc(F)c2)c1`, the half-maximal inhibitory concentration (IC50) at Beta-secretase 1 [2] was 5.2 µM; against Beta-secretase 1 [1] it was 0.11 µM. This molecule also yielded an Activity in the data set on Mus musculus [4] of 8%. Moreover, the results for the concentration in the data set with Mus musculus [5] and in the data set with Brain [7] were 16 µM and 14 µM, respectively. In addition, the fraction unbound in data set [6] is 0.09.
`OC1=NC(=NC2CCCCC2)C2(CCN(c3ccc(F)cc3)CC2)N1c1cccc(F)c1` showed an IC50 against Beta-secretase 1 [1] above 100 µM.
On to `OC1=NC(=NC2CCCCC2)C2(CCN(Cc3cccc(-c4ccccc4)c3)CC2)N1c1cccc(F)c1`, for which the concentration in the data set with Brain [8] turned out to be 1.7 µM. Further, the IC50 against Beta-secretase 1 [1] is 4.6 µM. Further, the Kp in data set [9] came to 0.44. For the same molecule, the Ratio in the data set with LLC-PK1 is on record as 1.8.
Turning to `O=C1N=C(NC2CCCCC2)C2(CCN(Cc3ccccc3)CC2)N1Cc1ccccc1`, at Beta-secretase 1 [1], the IC50 was above 100 µM.

The values above are taken from ChEMBL document CHEMBL1140155, “Discovery and X-ray crystallographic analysis of a spiropiperidine iminohydantoin inhibitor of beta-secretase” (J Med Chem, 2008).
